In patent US11937601B2, “Method for treatment of soybean rust” (Globachem NV, priority 2020, dated 2024):

How the values were obtained:
P. pachyrhizi [1] = experiment: Field trial, defoliation percent of soybean naturally infected by soybean rust; type: in vivo, Phakopsora pachyrhizi
Description: (§1) A field trial was conducted to evaluate the effect and efficacy of zoxamide on soybean rust disease on soybean (Glycine max) wherein plants were naturally infected by the disease (P. pachyrhizi). The trial was divided in the following 11 treatments: • TREATMENT 1: One treatment where plants were left untreated and in which natural progression of the disease was observed; • TREATMENT 2: One reference treatment which consisted of chlorothalonil applied in 1.3 kg/ha; • TREATMENT 3: One reference treatment which consisted of treatment with prothioconazole applied in 75 g/ha. • TREATMENT 4: One reference treatment with the mixture of prothioconazole and trifloxystrobin applied in amount of 70 g/ha of prothioconazole and 60 g/ha of trifloxystrobin. • TREATMENT 5: One reference treatment with wherein tebuconazole was applied in amount of 83.3 g/ha; mancozeb in amount of 1000 g/ha and picoxystrobin in amount of 66.6 g/ha. All four reference treatments (TREATMENTS 2-5) are currently available treatments of soybean rust, wherein the mentioned compositions were prepared from commercially available products prepared according to the respective label instructions and sprayed on the plants in amounts mentioned above and in Table 1 and 2. TREATMENTS 6-8: Three treatments wherein zoxamide was applied in different doses of (6) 180 g/ha, (7) 120 g/ha, and (8) 90 g/ha. TREATMENTS 9-11: Three treatments wherein zoxamide was applied together with prothioconazole in the following doses: (9) zoxamide 180 g/ha and prothioconazole 75 g/ha; (10) zoxamide 120 g/ha and prothioconazole 75 g/ha; and (11) zoxamide 90 g/ha and prothioconazole 75 g/ha. Each of the above treatments was applied on a plot of 3 meters by 6 meters in size and was repeated in 4 replicates. Zoxamide compositions used in this trial were prepared from the suspension concentrate containing 240 g/L of zoxamide, diluted with water to predetermined concentration, vegetable oil was added to concentration of 0.25% V/V, and such composition was sprayed on the plants in the predetermined amounts. First application of respective treatments was made when soybean plant reached BBCH growth stages around 60 to 75. Growth stages were defined according to Compendium of Growth Stage Identification Keys for Mono- and Dicotyledonous Plants, Extended BBCH scale, 2nd Edition 1997, ISBN 3-9520749-3-4. For each treatment, two applications of the respective treatment were made with 14 days interval between. Disease spread and defoliation were evaluated by visual estimation of degree of infection on leaves and defoliation. In Table 1 and Table 2, the following terms have the following meaning: % S—severity; % E—efficacy; 0.0%—disease progressed to maximum; 100.0%—no disease symptoms observed.

P. pachyrhizi [2] = experiment: Field trial, soybean rust severity and efficacy on naturally infected soybean; type: in vivo, Phakopsora pachyrhizi
Description: as §1

[3] = 21 days after second application, prothioconazole 75 g/ha
[4] = 28 days after second application, prothioconazole 75 g/ha
[5] = 7 days after first application, prothioconazole 75 g/ha
[6] = 7 days after second application, prothioconazole 75 g/ha
[7] = 14 days after first application, prothioconazole 75 g/ha
[8] = 14 days after second application, prothioconazole 75 g/ha
[9] = 21 days after second application, chlorothalonil 1296 g/ha
[10] = 28 days after second application, chlorothalonil 1296 g/ha
[11] = 7 days after first application, chlorothalonil 1296 g/ha
[12] = 7 days after second application, chlorothalonil 1296 g/ha
[13] = 14 days after first application, chlorothalonil 1296 g/ha
[14] = 14 days after second application, chlorothalonil 1296 g/ha
[15] = 21 days after second application, zoxamide 90 g/ha
[16] = 21 days after second application, zoxamide 120 g/ha
[17] = 21 days after second application, zoxamide 180 g/ha
[18] = 28 days after second application, zoxamide 90 g/ha
[19] = 28 days after second application, zoxamide 120 g/ha
[20] = 28 days after second application, zoxamide 180 g/ha
[21] = 7 days after first application, zoxamide 90 g/ha
[22] = 7 days after first application, zoxamide 120 g/ha
[23] = 7 days after first application, zoxamide 180 g/ha
[24] = 7 days after second application, zoxamide 90 g/ha
[25] = 7 days after second application, zoxamide 120 g/ha
[26] = 7 days after second application, zoxamide 180 g/ha
[27] = 14 days after first application, zoxamide 90 g/ha
[28] = 14 days after first application, zoxamide 120 g/ha
[29] = 14 days after first application, zoxamide 180 g/ha
[30] = 14 days after second application, zoxamide 90 g/ha
[31] = 14 days after second application, zoxamide 120 g/ha
[32] = 14 days after second application, zoxamide 180 g/ha

Which results are given for OC(Cc1ccccc1Cl)(Cn1nc[nH]c1=S)C1(Cl)CC1 (stereo not shown) [PROTHIOCONAZOLE, prothioconazole]?
Defoliation % (P. pachyrhizi [1]; [3]): 50.00%; Efficacy % (defoliation) (P. pachyrhizi [1]; [3]): 38.46%; Defoliation % (P. pachyrhizi [1]; [4]): 70.00%; Efficacy % (defoliation) (P. pachyrhizi [1]; [4]): 30.00%; % E (efficacy) (P. pachyrhizi [2]; [5]): 100.00%; % S (severity) (P. pachyrhizi [2]; [5]): 0.00%; % E (efficacy) (P. pachyrhizi [2]; [6]): 85.88%; % S (severity) (P. pachyrhizi [2]; [6]): 3.00%; % E (efficacy) (P. pachyrhizi [2]; [7]): 100.00%; % S (severity) (P. pachyrhizi [2]; [7]): 0.00%; % E (efficacy) (P. pachyrhizi [2]; [8]): 85.88%; % S (severity) (P. pachyrhizi [2]; [8]): 3.00%; % E (efficacy) (P. pachyrhizi [2]; [3]): 62.16%; % S (severity) (P. pachyrhizi [2]; [3]): 17.50%

Which results are given for N#Cc1c(Cl)c(Cl)c(Cl)c(C#N)c1Cl [CHLOROTHALONIL, chlorothalonil]?
Defoliation % (P. pachyrhizi [1]; [9]): 50.00%; Efficacy % (defoliation) (P. pachyrhizi [1]; [9]): 38.46%; Defoliation % (P. pachyrhizi [1]; [10]): 60.00%; Efficacy % (defoliation) (P. pachyrhizi [1]; [10]): 40.00%; % E (efficacy) (P. pachyrhizi [2]; [11]): 100.00%; % S (severity) (P. pachyrhizi [2]; [11]): 0.00%; % E (efficacy) (P. pachyrhizi [2]; [12]): 76.47%; % S (severity) (P. pachyrhizi [2]; [12]): 5.00%; % E (efficacy) (P. pachyrhizi [2]; [13]): 66.67%; % S (severity) (P. pachyrhizi [2]; [13]): 5.00%; % E (efficacy) (P. pachyrhizi [2]; [14]): 76.47%; % S (severity) (P. pachyrhizi [2]; [14]): 5.00%; % E (efficacy) (P. pachyrhizi [2]; [9]): 68.11%; % S (severity) (P. pachyrhizi [2]; [9]): 14.75%

What does the source list for CCC(C)(NC(=O)c1cc(Cl)c(C)c(Cl)c1)C(=O)CCl (stereo not shown) [ZOXAMIDE, 3,5-dichloro-N-(3-chloro-1-ethyl-1-methyl-2-oxopropyl)-4-methyl benzamide]?
Defoliation % (P. pachyrhizi [1]; [15]): 52.50%; Efficacy % (defoliation) (P. pachyrhizi [1]; [15]): 35.38%; Defoliation % (P. pachyrhizi [1]; [16]): 48.75%; Efficacy % (defoliation) (P. pachyrhizi [1]; [16]): 40.00%; Defoliation % (P. pachyrhizi [1]; [17]): 42.50%; Efficacy % (defoliation) (P. pachyrhizi [1]; [17]): 47.69%; Defoliation % (P. pachyrhizi [1]; [18]): 70.00%; Efficacy % (defoliation) (P. pachyrhizi [1]; [18]): 30.00%; Defoliation % (P. pachyrhizi [1]; [19]): 60.00%; Efficacy % (defoliation) (P. pachyrhizi [1]; [19]): 40.00%; Defoliation % (P. pachyrhizi [1]; [20]): 51.25%; Efficacy % (defoliation) (P. pachyrhizi [1]; [20]): 48.75%; % E (efficacy) (P. pachyrhizi [2]; [21]): 100.00%; % S (severity) (P. pachyrhizi [2]; [21]): 0.00%; % E (efficacy) (P. pachyrhizi [2]; [22]): 100.00%; % S (severity) (P. pachyrhizi [2]; [22]): 0.00%; % E (efficacy) (P. pachyrhizi [2]; [23]): 100.00%; % S (severity) (P. pachyrhizi [2]; [23]): 0.00%; % E (efficacy) (P. pachyrhizi [2]; [24]): 85.88%; % S (severity) (P. pachyrhizi [2]; [24]): 3.00%; % E (efficacy) (P. pachyrhizi [2]; [25]): 100.00%; % S (severity) (P. pachyrhizi [2]; [25]): 0.00%; % E (efficacy) (P. pachyrhizi [2]; [26]): 100.00%; % S (severity) (P. pachyrhizi [2]; [26]): 0.00%; % E (efficacy) (P. pachyrhizi [2]; [27]): 100.00%; % S (severity) (P. pachyrhizi [2]; [27]): 0.00%; % E (efficacy) (P. pachyrhizi [2]; [28]): 100.00%; % S (severity) (P. pachyrhizi [2]; [28]): 0.00%; % E (efficacy) (P. pachyrhizi [2]; [29]): 100.00%; % S (severity) (P. pachyrhizi [2]; [29]): 0.00%; % E (efficacy) (P. pachyrhizi [2]; [30]): 76.47%; % S (severity) (P. pachyrhizi [2]; [30]): 5.00%; % E (efficacy) (P. pachyrhizi [2]; [31]): 85.88%; % S (severity) (P. pachyrhizi [2]; [31]): 3.00%; % E (efficacy) (P. pachyrhizi [2]; [32]): 100.00%; % S (severity) (P. pachyrhizi [2]; [32]): 0.00%; % E (efficacy) (P. pachyrhizi [2]; [15]): 70.27%; % S (severity) (P. pachyrhizi [2]; [15]): 13.75%; % E (efficacy) (P. pachyrhizi [2]; [16]): 81.08%; % S (severity) (P. pachyrhizi [2]; [16]): 8.75%; % E (efficacy) (P. pachyrhizi [2]; [17]): 90.27%; % S (severity) (P. pachyrhizi [2]; [17]): 4.50%
